From ChEMBL document CHEMBL1201862, “PubChem BioAssay data set” (2004) come the findings set out here.

Molecules are shown by their SMILES.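 Cells were grown in 96-well plates and exposed to each compound for 48 hours at five concentrations; endpoints were interpolated linearly between bracketing concentrations, or set to the highest concentration if not reached. GI50 is the concentration that inhibits growth by half.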 The source made the active and inactive calls. Rule as the data show it: active = GI50 up to about 1.1 µM and inactive = higher.

Among the test systems are SK-MEL-5; RXF 393; SK-MEL-2; SF-268; COLO 205; K562; KM12; SK-OV-3; RPMI-8226; TK-10; SW-620; IGROV-1; PC-3; U-251; CAKI-1; MDA-MB-435; HT-29; MOLT-4; M14.
What all share (test): NCI-60 cell line screen, 48 h

As for `CN1C(=O)CC2CCCN2C1=O` (stereo unspecified), the GI50 in the test on SK-MEL-5, in the test with RXF 393, in the test on SK-MEL-2, in the test with SF-268, in the test with COLO 205 and in the test with K562 was > 100 µM (inactive) each time. For the same molecule, the GI50 with KM12, in the test with SK-OV-3, with RPMI-8226, with TK-10, in the test on SW-620 and in the test with IGROV-1 was > 100 µM (inactive) each time. Besides, the GI50 in the test on PC-3, in the test with U-251, with CAKI-1, with MDA-MB-435, in the test with HT-29 and with MOLT-4 was > 100 µM (inactive) each time. Further, the GI50 in the test with M14 is > 100 µM (inactive).

As for `CN(C)C1=Nc2ccccc2C(=S)N2CSCC12` (stereo unspecified), the GI50 in the test on SK-MEL-5 is > 100 µM (inactive); with RXF 393, 44.7 µM (inactive); with SK-MEL-2 it was > 100 µM (inactive); in the test on SF-268, > 100 µM (inactive); in the test with COLO 205, 22.3 µM (inactive); with K562, 12.8 µM (inactive). Also, the GI50 was > 100 µM (inactive) with KM12; > 100 µM (inactive) in the test with SK-OV-3; 51.4 µM (inactive) with RPMI-8226; > 100 µM (inactive) in the test on TK-10; 34.8 µM (inactive) in the test on SW-620; 19.1 µM (inactive) in the test on IGROV-1. The GI50 is > 100 µM (inactive) in the test with PC-3; 35.6 µM (inactive) in the test on U-251; 20.9 µM (inactive) in the test with CAKI-1; > 100 µM (inactive) in the test on MDA-MB-435; 75.9 µM (inactive) in the test on HT-29; 22.4 µM (inactive) with MOLT-4. Moreover, the GI50 in the test on M14 was 66.2 µM (inactive).

`C[C@]12CC/C(=N\O)C=C1CC[C@@H]1[C@@H]2CC[C@]2(C)C(=N/O)/C(=C/c3ccncc3)C[C@@H]12`: the GI50 with SK-MEL-5 is 7 µM (inactive); in the test on RXF 393 it was 24.3 µM (inactive); with SK-MEL-2 it was 15 µM (inactive); in the test with SF-268, 28.7 µM (inactive); in the test with COLO 205, 15.9 µM (inactive); with K562 it was 26.4 µM (inactive). For the same molecule, the GI50 in the test with KM12 is 17.3 µM (inactive); with SK-OV-3, 51.5 µM (inactive); in the test on RPMI-8226, 6.85 µM (inactive); in the test on TK-10, 36.1 µM (inactive); with SW-620, 37.4 µM (inactive); in the test on IGROV-1, 53.8 µM (inactive). The GI50 was 14 µM (inactive) with PC-3; 29.2 µM (inactive) with U-251; 24.2 µM (inactive) with CAKI-1; 21.8 µM (inactive) with MDA-MB-435; 11.5 µM (inactive) in the test with HT-29; 18.8 µM (inactive) in the test on MOLT-4. Besides, in the test on M14, the GI50 is 13.5 µM (inactive).

On to `CC(=O)OC(C)c1cc2c(s1)C(=O)c1ccsc1C2=O` (stereo unspecified), for which the GI50 in the test on SK-MEL-5 was 0.0273 µM (active); with RXF 393, 0.206 µM (active); with SK-MEL-2 it was 0.483 µM (active); in the test on SF-268, 0.213 µM (active); in the test with COLO 205, 0.776 µM (active); in the test on K562, 0.131 µM (active). Besides, the GI50 with KM12 was 0.169 µM (active); with SK-OV-3, 2.07 µM (inactive); in the test on RPMI-8226 it was 0.0826 µM (active); in the test on TK-10 it was 1.22 µM (inactive); in the test with SW-620, 0.324 µM (active); in the test with IGROV-1, 0.659 µM (active). For the same molecule, the GI50 in the test on PC-3 is 0.041 µM (active); in the test with U-251 it was 0.165 µM (active); in the test on CAKI-1, 0.895 µM (active); with MDA-MB-435 it was 0.0168 µM (active); in the test on HT-29 it was 0.17 µM (active); with MOLT-4, 0.262 µM (active). In addition, the GI50 in the test on M14 was 0.129 µM (active).
